# Reference: patent US10131652B2, “Pyrimidinyloxy benzene derivatives as herbicides” (E. I. DU PONT DE NEMOURS AND COMPANY, priority 2014, dated 2018)
# Where two headings read alike, the source gives them in different places.
# Key:
# Assay in all cases: Test B pre-/postemergence plant response
# Format in all cases: in vivo
# [1] = test system: barnyardgrass (Echinochloa crus-galli); settings: 1000 g ai/ha, 0 to 100 scale (0 no effect, 100 complete control); for pest or weed control at 1000 g/ha: Echinochloa crus-galli, 240 h, read-out: Plant response rating, Barnyardgrass
# From the text: (§1) Seeds of plant species selected from bamyardgrass (Echinochloa crus-galli), kochia (Kochia scoparia), ragweed (common ragweed, Ambrosia elatior), Italian ryegrass (Lolium multiflorum), large (Lg) crabgrass (Digitaria sanguinalis), giant foxtail (Setaria faberii), momingglory (Ipomoea spp.), pigweed (Amaranthus retroflexus), velvetleaf (Abutilon theophrasti), wheat (Triticum aestivum), and corn (Zea mays) were planted into a blend of loam soil and sand and treated preemergence with a directed soil spray using test chemicals formulated in a non-phytotoxic solvent mixture which included a surfactant. At the same time, plants selected from these crop and weed species and also blackgrass (Alopecurus myosuroides), and galium (catchweed bedstraw, Galium aparine) were planted in pots containing the same blend of loam soil and sand and treated with postemergence applications of test chemicals formulated in the same manner. Plants ranged in height from 2 to 10 cm and were in the one- to two-leaf stage for the postemergence treatment. Treated plants and untreated controls were maintained in a greenhouse for approximately 10 days, after which time all treated plants were compared to untreated controls and visually evaluated for injury. Plant response ratings, summarized in Table B, are based on a 0 to 100 scale where 0 is no effect and 100 is complete control. A dash (-) response means no test result.
# [2] = test system: velvetleaf (Abutilon theophrasti); settings: 1000 g ai/ha, 0 to 100 scale (0 no effect, 100 complete control); for pest or weed control at 1000 g/ha: Abutilon theophrasti, 240 h, read-out: Plant response rating, Velvetleaf
# From the text: as §1
# [3] = test system: corn (Zea mays); settings: 1000 g ai/ha, 0 to 100 scale (0 no effect, 100 complete control); for Corn plant response rating (crop injury, 0 = no effect, 100 = complete kill) at 1000 g/ha: Zea mays, 240 h
# From the text: as §1
# [4] = test system: giant foxtail (Setaria faberii); settings: 1000 g ai/ha, 0 to 100 scale (0 no effect, 100 complete control); for pest or weed control at 1000 g/ha: Setaria faberi, 240 h, read-out: Plant response rating, Foxtail, Giant
# From the text: as §1
# [5] = test system: wheat (Triticum aestivum); settings: 1000 g ai/ha, 0 to 100 scale (0 no effect, 100 complete control); for plant injury at 1000 g/ha: Triticum aestivum, 240 h, read-out: Plant response rating, Wheat
# From the text: as §1
# [6] = test system: pigweed (Amaranthus retroflexus); settings: 1000 g ai/ha, 0 to 100 scale (0 no effect, 100 complete control); for pest or weed control at 1000 g/ha: Amaranthus retroflexus, 240 h, read-out: Plant response rating, Pigweed
# From the text: as §1
# [7] = test system: morningglory (Ipomoea spp.); settings: 1000 g ai/ha, 0 to 100 scale (0 no effect, 100 complete control); for pest or weed control at 1000 g/ha: Ipomoea, 240 h, read-out: Plant response rating, Morningglory
# From the text: as §1
# [8] = test system: large (Lg) crabgrass (Digitaria sanguinalis); settings: 1000 g ai/ha, 0 to 100 scale (0 no effect, 100 complete control); for pest or weed control at 1000 g/ha: Digitaria sanguinalis, 240 h, read-out: Plant response rating, Crabgrass, Large
# From the text: as §1
Compound,"pest or weed control at 1000 g/ha ([1]; post-emergence, Postemergence) [%]","pest or weed control at 1000 g/ha ([1]; pre-emergence, Preemergence) [%]","pest or weed control at 1000 g/ha ([2]; post-emergence, Postemergence) [%]","pest or weed control at 1000 g/ha ([2]; pre-emergence, Preemergence) [%]","Corn plant response rating (crop injury, 0 = no effect, 100 = complete kill) at 1000 g/ha ([3]; post-emergence, Postemergence) [%]","Plant response rating, Barnyardgrass ([1]; Postemergence)","Plant response rating, Barnyardgrass ([1]; Preemergence)","Plant response rating, Velvetleaf ([2]; Postemergence)","Plant response rating, Corn ([3]; Postemergence)","Plant response rating, Corn ([3]; Preemergence)","Plant response rating, Foxtail, Giant ([4]; Postemergence)","Plant response rating, Foxtail, Giant ([4]; Preemergence)","Plant response rating, Wheat ([5]; Postemergence)","Plant response rating, Wheat ([5]; Preemergence)","Plant response rating, Pigweed ([6]; Postemergence)","Plant response rating, Pigweed ([6]; Preemergence)","Plant response rating, Morningglory ([7]; Postemergence)","Plant response rating, Morningglory ([7]; Preemergence)","Plant response rating, Crabgrass, Large ([8]; Postemergence)","Plant response rating, Crabgrass, Large ([8]; Preemergence)",also measured
"OCc1cc(-c2ccccc2Oc2ncc(Cl)cn2)no1 [Compound 31, 3-[2-[(5-chloro-2-pyrimidinyl)oxy]phenyl]-5-isoxazolemethanol]",10,0,30,0,0,–,–,–,–,–,–,–,–,–,–,–,–,–,–,–,"Corn plant response rating (crop injury, 0 = no effect, 100 = complete kill) at 1000 g/ha ([3]; pre-emergence, Preemergence): 0%; pest or weed control at 1000 g/ha ([4]; post-emergence, Postemergence): 30%; pest or weed control at 1000 g/ha ([4]; pre-emergence, Preemergence): 30%; plant injury at 1000 g/ha ([5]; post-emergence, Postemergence): 0%; plant injury at 1000 g/ha ([5]; pre-emergence, Preemergence): 0%; pest or weed control at 1000 g/ha ([6]; post-emergence, Postemergence): 30%; pest or weed control at 1000 g/ha ([6]; pre-emergence, Preemergence): 0%; pest or weed control at 1000 g/ha ([7]; post-emergence, Postemergence): 30%; pest or weed control at 1000 g/ha ([7]; pre-emergence, Preemergence): 0%; pest or weed control at 1000 g/ha ([8]; post-emergence, Postemergence): 50%; pest or weed control at 1000 g/ha ([8]; pre-emergence, Preemergence): 80%"
"O=Cc1cc(-c2ccccc2Oc2ncc(Cl)cn2)no1 [Compound 33, 3-[2-[(5-chloro-2-pyrimidinyl)oxy]phenyl]-5-isoxazolecarboxaldehyde]",0,0,0,0,0,–,–,–,–,–,–,–,–,–,–,–,–,–,–,–,"Corn plant response rating (crop injury, 0 = no effect, 100 = complete kill) at 1000 g/ha ([3]; pre-emergence, Preemergence): 0%; pest or weed control at 1000 g/ha ([4]; post-emergence, Postemergence): 10%; pest or weed control at 1000 g/ha ([4]; pre-emergence, Preemergence): 10%; plant injury at 1000 g/ha ([5]; post-emergence, Postemergence): 0%; plant injury at 1000 g/ha ([5]; pre-emergence, Preemergence): 0%; pest or weed control at 1000 g/ha ([6]; post-emergence, Postemergence): 10%; pest or weed control at 1000 g/ha ([6]; pre-emergence, Preemergence): 40%; pest or weed control at 1000 g/ha ([7]; post-emergence, Postemergence): 10%; pest or weed control at 1000 g/ha ([7]; pre-emergence, Preemergence): 0%; pest or weed control at 1000 g/ha ([8]; post-emergence, Postemergence): 10%; pest or weed control at 1000 g/ha ([8]; pre-emergence, Preemergence): 80%"
ClCc1cc(-c2ccccc2Oc2ncc(Cl)cn2)no1 [Compound 34],–,–,–,–,–,0,0,20,0,0,0,10,0,0,40,100,0,0,10,10,"Plant response rating, Velvetleaf ([2]; Preemergence): 10"
N#CCc1cc(-c2ccccc2Oc2ncc(Cl)cn2)no1 [Compound 36],–,–,–,–,–,90,30,100,50,0,90,90,50,0,90,100,20,10,80,100,–
Clc1cnc(Oc2ccccc2-c2ncco2)nc1 [Compound 61],–,–,–,–,–,10,20,70,0,0,0,40,0,0,60,90,10,0,0,50,"Plant response rating, Velvetleaf ([2]; Preemergence): 50"
